Experimental data: US6143715A, “Hepatitis C inhibitor peptide analogues” (priority 1998, dated 2000)
Starred links: 1 amine or outer side, 2 acyl side, 3 side chain; linkers in the order of their positions; H or OH if unused. Non-standard residues stand in square brackets, D forms with d. Residues, ends and D or L forms follow the SMILES beside them. ξ: configuration not given here. *: point of attachment. Tetrahydroisoquinolin(2-yl) = c1ccc2c(c1)CCN(*)C2; NH(1S-phenylpropyl) = CC[C@H](N*)c1ccccc1; NH(1S-phenylethyl) = C[C@H](N*)c1ccccc1; X21 = CCCN(N*)C(=O)CCc1nc(-c2ccccn2)no1; X11 = CCCN(N*)C(=O)[C@H](O)c1ccccc1; X20 = O=C(N(CC(F)(F)F)N[*:1])[*:2]; X1 = CCCC(N*)C(=O)C(F)(F)C(F)(F)F; X15 = CCCC(N[*:1])C(=O)C(=O)[*:2]; Hyp = O=C(O)[C@@H]1C[C@@H](O)CN1; azaNva = CCCN(N[*:1])C(=O)[*:2]; X10 = C=CCN(N[*:1])C(=O)[*:2]; X18 = CCCN(N*)C(=S)NCc1ccccc1; NMe(benzyl) = CN(Cc1ccccc1)*; Suc = O=C(CCC(=O)[*:2])[*:1]; X12 = C[C@H](N*)c1nnn[nH]1; Nva = CCC[C@H](N)C(=O)O; X14 = c1ccc2c(c1)CCN2*; X16 = CCCCN(N*)C(N)=O; NHBn = c1ccc(CN*)cc1; X13 = CCCN(N*)C(N)=O; X19 = CCCN(N*)C(C)=O; ξNva = CCCC(N)C(=O)O; Bn = c1ccc(C*)cc1

Each compound was assayed against T1, HCV NS3 protease type 1b/NS4A cofactor peptide (Hepatitis C virus genotype 1b, UniProt P26663) (assay: biochemical). Conditions: not given.
T1 construct: recombinant HCV NS3 protease (amino acid 1027 to 1206) was cloned; made in house; host or cells: E. coli BL21(DE3)pLysS
Parameters: species or system hepatitis C virus (HCV) genotype 1b
From the text: a) Cloning, expression and purification of the recombinant HCV NS3 protease type lb
Serum from an HCV-infected patient was obtained through an external collaboration (Bernard Willems MD, Hopital St-Luc, Montreal, Canada and Dr. Donald Murphy, Laboratoire de Sante Publique du Quebec, Ste-Anne de Bellevue, Canada). An engineered full-length cDNA template of the HCV genome was constructed from DNA fragments obtained by reverse transcription-PCR (RT-PCR) of serum RNA and using specific primers selected on the basis of homology between other genotype lb strains. […] A DNA fragment encoding the polyprotein precursor (NS3/NS4A/NS4B/NS5A/NS5B) was generated by PCR and introduced into eucaryotic expression vectors.
The NS3 protease expression in E. coli BL21(DE3)pLysS was induced by incubation with 1 mM IPTG for 3 h at 22° C. […] The cells were resuspended in lysis buffer (3.0 mL/g) consisting of 25 mM sodium phosphate, pH 7.5, 10% glycerol (v/v), 1 mM EDTA, 0.01% NP-40 and stored at -80° C. Cells were thawed and homogenized following the addition of 5 mM DTT. Magnesium chloride and DNase were then added to the homogenate at final concentrations of 20 mM and 20 μg/mL respectively. After a 25 min incubation at 4° C., the homogenate was sonicated and centrifuged at 15000× g for 30 min at 4° C. The pH of the supernatant was then adjusted to 6.5 using a 1M sodium phosphate solution.
Briefly, the supernatant from the bacterial extract was loaded on a SP HiTrap column (Pharmacia) previously equilibrated at a flow rate of 2 mL/min in buffer A (50 mM sodium phosphate, pH 6.5, 10% glycerol, 1 mM EDTA, 5 mM DTT, 0.01% NP-40). The column was then washed with buffer A containing 0.15 M NaCl and the protease eluted by applying 10 column volumes of a linear 0.15 to 0.3 M NaCl gradient. NS3 protease-containing fractions were pooled and diluted to a final NaCl concentration of 0.1 M. The enzyme was further purified on a HiTrap Heparin column (Pharmacia) equilibrated in buffer B (25 mM sodium phosphate, pH 7.5, 10% glycerol, 5 mM DTT, 0.01% NP-40). The sample was loaded at a flow rate of 3 mL/min. The column was then washed with buffer B containing 0.15 M NaCl at a flow rate of 1.5 mL/min. Two step washes were performed in the presence of buffer B containing 0.3 or 1M NaCl. […] Finally, the NS3 protease-containing fractions were applied on a Superdex 75 HiLoad 16/60 column (Pharmacia) equilibrated in buffer B containing 0.3 M NaCl.
The enzyme was stored at -80° C. and was thawed on ice and diluted just prior to use.
Recombinant HCV NS3 Protease/NS4A Cofactor Peptide Radiometric Assay
The enzyme was stored at -80° C., thawed on ice and diluted just prior to use in the assay buffer containing the NS4A cofactor peptide.
The substrate used for the NS3 protease/[…] cofactor peptide radiometric assay, DDIVPC-SMSYTW, is cleaved between the cysteine and the serine residues by the enzyme. The sequence DDIVPC-SMSYTW corresponds to the NS5A/NS5B natural cleavage site in which the cysteine residue in […] has been substituted for a proline. […] (molar ratio enzyme: cofactor 1:100) in the absence or presence of inhibitors. The separation of substrate from products is performed by adding avidin-coated agarose beads to the assay mixture followed by filtration.
Assay buffer: 50 mM Tris HCl, pH 7.5, 30% (w/v) glycerol, 1 mg/mL BSA, 1 mM TCEP (TCEP added just prior to use from a 1 M stock solution in water)
Substrate: […], […] final concentration (from a 2 mM stock solution in DMSO stored at -20° C. to avoid oxidation).

T1 sequence (P26663 1027-1206, other chains not shown): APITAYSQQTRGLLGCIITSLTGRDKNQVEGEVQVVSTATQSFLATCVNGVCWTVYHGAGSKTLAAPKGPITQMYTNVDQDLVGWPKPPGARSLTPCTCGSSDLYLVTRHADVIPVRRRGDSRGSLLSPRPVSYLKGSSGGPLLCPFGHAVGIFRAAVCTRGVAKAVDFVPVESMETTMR

Compound	IC50 [µM]
CCCC(NC(=O)[C@@H]1C[C@@H](OCc2ccccc2)CN1C(=O)[C@@H](NC(=O)[C@@H](NC(=O)[C@@H](CCC(=O)O)NC(=O)[C@H](CC(=O)O)NC(C)=O)[C@@H](C)CC)C(C)C)C(N)=O (some centres unmarked) [Compound 105] (Ac-D[dE]IV[Hyp](Bn)[ξNva]-NH2)	54
C=CCN(NC(=O)[C@@H]1C[C@@H](OCc2ccccc2)CN1C(=O)[C@@H](NC(=O)[C@@H](NC(=O)[C@@H](CCC(=O)O)NC(=O)[C@H](CC(=O)O)NC(C)=O)[C@@H](C)CC)C(C)C)C(=O)NCc1ccccc1 [Compound 234] (Ac-D[dE]IV[Hyp](Bn)[X10]-NHBn)	3.7
CCCCN(NC(=O)[C@@H]1C[C@@H](OCc2ccccc2)CN1C(=O)[C@@H](NC(=O)[C@@H](NC(=O)[C@@H](CCC(=O)O)NC(=O)[C@H](CC(=O)O)NC(C)=O)[C@@H](C)CC)C(C)C)C(N)=O [Compound 211] (Ac-D[dE]IV[Hyp](Bn)-X16)	47
CCCN(NC(=O)[C@@H]1C[C@@H](OCc2ccccc2)CN1C(=O)[C@@H](NC(=O)[C@@H](NC(=O)[C@@H](CCC(=O)O)NC(=O)[C@H](CC(=O)O)NC(C)=O)[C@@H](C)CC)C(C)C)C(=O)N[C@@H](C)c1nnn[nH]1 [Compound 233] (Ac-D[dE]IV[Hyp](Bn)[azaNva]-X12)	1.5
CCCN(NC(=O)[C@@H]1C[C@@H](OCc2ccccc2)CN1C(=O)[C@@H](NC(=O)[C@@H](NC(=O)[C@@H](CCC(=O)O)NC(=O)[C@H](CC(=O)O)NC(C)=O)[C@@H](C)CC)C(C)C)C(=O)CCc1nc(-c2ccccn2)no1 [Compound 232] (Ac-D[dE]IV[Hyp](Bn)-X21)	3.2
CCCC(NC(=O)[C@@H]1C[C@@H](OCc2ccccc2)CN1C(=O)[C@@H](NC(=O)[C@@H](NC(=O)[C@@H](CCC(=O)O)NC(=O)[C@H](CC(=O)O)NC(C)=O)[C@@H](C)CC)C(C)C)C(=O)C(F)(F)C(F)(F)F (some centres unmarked) [Compound 102] (Ac-D[dE]IV[Hyp](Bn)-X1)	0.21
CCCN(NC(=O)[C@@H]1CCCN1C(=O)[C@@H](NC(=O)[C@@H](NC(=O)[C@@H](CC(=O)O)NC(=O)CCC(=O)O)[C@@H](C)CC)C(C)C)C(=O)N[C@@H](C)c1ccccc1 [Compound 220] (Suc-[dD]IVP[azaNva]-{NH(1S-phenylethyl)})	6.9
CCC[C@H](NC(=O)[C@@H]1C[C@@H](OCc2ccccc2)CN1C(=O)[C@@H](NC(=O)[C@@H](NC(=O)[C@@H](CCC(=O)O)NC(=O)[C@H](CC(=O)O)NC(C)=O)[C@@H](C)CC)C(C)C)C(=O)NCc1ccccc1 [Compound 107] (Ac-D[dE]IV[Hyp](Bn)[Nva]-NHBn)	3
CCCN(NC(=O)[C@@H]1C[C@@H](OCc2ccccc2)CN1C(=O)[C@@H](NC(=O)[C@@H](NC(=O)[C@@H](CCC(=O)O)NC(=O)[C@H](CC(=O)O)NC(C)=O)[C@@H](C)CC)C(C)C)C(=O)NCC(=O)O [Compound 207] (Ac-D[dE]IV[Hyp](Bn)[azaNva]G-OH)	3.75
CCCN(NC(=O)[C@@H]1C[C@@H](OCc2ccccc2)CN1C(=O)[C@@H](NC(=O)[C@@H](NC(=O)[C@@H](CCC(=O)O)NC(=O)[C@H](CC(=O)O)NC(C)=O)[C@@H](C)CC)C(C)C)C(=O)[C@H](O)c1ccccc1 [Compound 216] (Ac-D[dE]IV[Hyp](Bn)-X11)	9.6
CCCN(NC(=O)[C@@H]1C[C@@H](OCc2ccccc2)CN1C(=O)[C@@H](NC(=O)[C@@H](NC(=O)[C@@H](CCC(=O)O)NC(=O)[C@H](CC(=O)O)NC(C)=O)[C@@H](C)CC)C(C)C)C(=O)N(C)Cc1ccccc1 [Compound 223] (Ac-D[dE]IV[Hyp](Bn)[azaNva]-{NMe(benzyl)})	11
CCCC(NC(=O)[C@@H]1C[C@@H](OCc2ccccc2)CN1C(=O)[C@@H](NC(=O)[C@@H](NC(=O)[C@@H](CCC(=O)O)NC(=O)[C@H](CC(=O)O)NC(C)=O)[C@@H](C)CC)C(C)C)C(=O)N1CCc2ccccc2C1 (some centres unmarked) [Compound 111] (Ac-D[dE]IV[Hyp](Bn)[ξNva]-{Tetrahydroisoquinolin(2-yl)})	20
CCCN(NC(=O)[C@@H]1C[C@@H](OCc2ccccc2)CN1C(=O)[C@@H](NC(=O)[C@@H](NC(C)=O)C1CCCCC1)C(C)C)C(=O)C(=O)O [Compound 227]	39.5
CCCN(NC(=O)[C@@H]1C[C@@H](OCc2ccccc2)CN1C(=O)[C@@H](NC(=O)[C@@H](NC(=O)[C@@H](CCC(=O)O)NC(=O)[C@H](CC(=O)O)NC(C)=O)[C@@H](C)CC)C(C)C)C(=S)NCc1ccccc1 [Compound 224] (Ac-D[dE]IV[Hyp](Bn)-X18)	5
CCCN(NC(=O)[C@@H]1C[C@@H](OCc2ccccc2)CN1C(=O)[C@@H](NC(=O)[C@@H](NC(=O)[C@@H](CCC(=O)O)NC(=O)[C@H](CC(=O)O)NC(C)=O)[C@@H](C)CC)C(C)C)C(N)=O [Compound 209] (Ac-D[dE]IV[Hyp](Bn)-X13)	20.5
CCCC(NC(=O)[C@@H]1C[C@@H](OCc2ccccc2)CN1C(=O)[C@@H](NC(=O)[C@@H](NC(C)=O)C1CCCCC1)C(C)C)C(=O)C(=O)NCc1ccncc1 (some centres unmarked) [Compound 116]	25
CCCN(NC(=O)[C@@H]1C[C@@H](OCc2ccccc2)CN1C(=O)[C@@H](NC(=O)[C@@H](NC(=O)[C@@H](CCC(=O)O)NC(=O)[C@H](CC(=O)O)NC(C)=O)[C@@H](C)CC)C(C)C)C(=O)N[C@@H](CC)c1ccccc1 [Compound 214] (Ac-D[dE]IV[Hyp](Bn)[azaNva]-{NH(1S-phenylpropyl)})	0.44
CCCC(NC(=O)[C@@H]1C[C@@H](OCc2ccccc2)CN1C(=O)[C@@H](NC(=O)[C@@H](NC(=O)[C@@H](CCC(=O)O)NC(=O)[C@H](CC(=O)O)NC(C)=O)[C@@H](C)CC)C(C)C)C(=O)C(=O)NCc1ccccc1 (some centres unmarked) [Compound 103] (Ac-D[dE]IV[Hyp](Bn)[X15]-NHBn)	0.023
CCCN(NC(=O)[C@@H]1C[C@@H](OCc2ccccc2)CN1C(=O)[C@@H](NC(=O)[C@@H](NC(=O)[C@@H](CCC(=O)O)NC(=O)[C@H](CC(=O)O)NC(C)=O)[C@@H](C)CC)C(C)C)C(=O)N1CCc2ccccc21 [Compound 226] (Ac-D[dE]IV[Hyp](Bn)[azaNva]-X14)	6.3
CCCN(NC(=O)[C@@H]1C[C@@H](OCc2ccccc2)CN1C(=O)[C@@H](NC(=O)[C@@H](NC(=O)[C@@H](CCC(=O)O)NC(=O)[C@H](CC(=O)O)NC(C)=O)[C@@H](C)CC)C(C)C)C(C)=O [Compound 208] (Ac-D[dE]IV[Hyp](Bn)-X19)	14.5
CC[C@H](C)[C@H](NC(=O)[C@@H](CCC(=O)O)NC(=O)[C@H](CC(=O)O)NC(C)=O)C(=O)N[C@H](C(=O)N1C[C@H](OCc2ccccc2)C[C@H]1C(=O)NN(CC(F)(F)F)C(=O)N[C@@H](C)c1ccccc1)C(C)C [Compound 228] (Ac-D[dE]IV[Hyp](Bn)[X20]-{NH(1S-phenylethyl)})	0.63
CCCN(NC(=O)[C@@H]1C[C@@H](OCc2ccccc2)CN1C(=O)[C@@H](NC(=O)[C@@H](NC(=O)[C@@H](CCC(=O)O)NC(=O)[C@H](CC(=O)O)NC(C)=O)[C@@H](C)CC)C(C)C)C(=O)NCc1ccccc1 [Compound 203] (Ac-D[dE]IV[Hyp](Bn)[azaNva]-NHBn)	0.59

Same assay, conditions: IC50: concentration required to obtain 50% inhibition in the NS3 protease/NS4A cofactor peptide radiometric assay, enzyme:cofactor 1:100, 40 min at 23° C.

Compound	IC50 [µM]
CCCC(NC(=O)[C@@H]1C[C@@H](OCc2ccccc2)CN1C(=O)[C@@H](NC(=O)[C@@H](NC(=O)[C@@H](CCC(=O)O)NC(=O)[C@H](CC(=O)O)NC(C)=O)[C@@H](C)CC)C(C)C)P(=O)(Oc1ccccc1)Oc1ccccc1 (single isomer, unassigned) [Compound 302]	26
